For 28 compounds, IC50 results are on record in patent US11304929B2, “Tosylacetate based compounds and derivatives thereof as PHGDH inhibitors” (priority 2017, dated 2022).

The target in the first assay is PHGDH (Homo sapiens (Human), UniProt O43175). Put plainly: 3-Phosphoglycerate Dehydrogenase (PHGDH) Fluorescence Intensity Assay, run at two NAD/3-PG ratios: PHGDH_HIGH_NAD/3-PG (250 μM NAD/500 μM 3-PG) and PHGDH_500_NAD/3-PG (500 μM NAD/500 μM 3-PG). The format is biochemical. Particulars: 250 μM NAD/500 μM 3-PG; read-out: IC50 (PHGDH_HIGH_NAD/3-PG).
PHGDH, sequence (O43175 2-533 limits assumed): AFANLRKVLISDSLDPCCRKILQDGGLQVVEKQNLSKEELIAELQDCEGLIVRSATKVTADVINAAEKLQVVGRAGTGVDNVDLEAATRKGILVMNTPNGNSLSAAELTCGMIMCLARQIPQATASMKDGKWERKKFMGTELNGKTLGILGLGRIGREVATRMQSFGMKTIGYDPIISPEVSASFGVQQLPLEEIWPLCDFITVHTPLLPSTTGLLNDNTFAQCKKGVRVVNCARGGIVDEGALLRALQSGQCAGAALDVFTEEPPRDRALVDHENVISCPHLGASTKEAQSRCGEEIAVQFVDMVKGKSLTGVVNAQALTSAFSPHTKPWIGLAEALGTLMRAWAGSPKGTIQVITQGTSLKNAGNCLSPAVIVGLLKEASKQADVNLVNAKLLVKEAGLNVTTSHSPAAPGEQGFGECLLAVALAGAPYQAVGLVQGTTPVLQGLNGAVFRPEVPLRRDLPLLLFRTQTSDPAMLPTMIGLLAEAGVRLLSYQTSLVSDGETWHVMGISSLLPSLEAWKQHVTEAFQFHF
Consider `COCCC(C(=O)O)S(=O)(=O)c1ccc([C@@H](C)NC(=O)c2cc3c(Cl)cc(C)cc3n2C)cc1` (stereo partly drawn) [Example 07-010, 2-{4-[(1R)-1-[(4-chloro-1,6-dimethyl-1H-indol-2-yl)formamido]ethyl]benzenesulfonyl}-4-methoxybutanoic acid], for which the IC50 came out at 21 nM. On the same count and under the same terms, to `CCC(C(=O)O)S(=O)(=O)c1ccc([C@@H](C)NC(=O)c2cc3c(Cl)cc(C)cc3n2C)cc1` (stereo partly drawn) [Example 07-011, 2-{4-[(1R)-1-[(4-chloro-1,6-dimethyl-1H-indol-2-yl)formamido]ethyl]benzenesulfonyl}butanoic acid] belongs 11 nM; to `Cc1cc(Cl)c2cc(C(=O)N[C@H](C)c3ccc(S(=O)(=O)C4(C(=O)O)CC4)cc3)n(C)c2c1` [Example 07-013, 1-{4-[(1R)-1-[(4-chloro-1,6-dimethyl-1H-indol-2-yl)formamido]ethyl]benzenesulfonyl}cyclopropane-1-carboxylic acid], 10 nM. Still for that read-out and setting: the result for `Cc1cc2c(cc(C(=O)N[C@H](CO)c3ccc(S(=O)(=O)C(C)(C)C(=O)O)cc3)n2C)c(Cl)c1Cl` [Example 07-014, 2-{4-[(1S)-1-[(4,5-dichloro-1,6-dimethyl-1H-indol-2-yl)formamido]-2-hydroxyethyl]benzenesulfonyl}-2-methylpropanoic acid] reads 4 nM; that for `Cc1cc2c(cc(C(=O)N[C@H](C)c3ccc(S(=O)(=O)C(C)(C)C(=O)O)cc3)n2C)c(Cl)c1Cl` [Example 07-015, 2-{4-[(1R)-1-[(4,5-dichloro-1,6-dimethyl-1H-indol-2-yl)formamido]ethyl]benzenesulfonyl}-2-methylpropanoic acid], 5 nM; that for `C[C@@H](NC(=O)c1cc(-c2ccc(F)cc2)nn1C)c1ccc(S(=O)(=O)C(C)(C)C(=O)O)cc1` [Example 08-001, 2-{4-[(1R)-1-{[3-(4-fluorophenyl)-1-methyl-1H-pyrazol-5-yl]formamido}ethyl]benzenesulfonyl}-2-methylpropanoic acid], 161 nM. In the case of `C[C@@H](NC(=O)c1cc(-c2ccc(F)cc2)nn1C)c1ccc(S(=O)(=O)C2(C(=O)O)CCCC2)cc1` [Example 08-002, 1-{4-[(1R)-1-{[3-(4-fluorophenyl)-1-methyl-1H-pyrazol-5-yl]formamido}ethyl]benzenesulfonyl}cyclopentane-1-carboxylic acid], the IC50 came out at 74 nM. The same measure, in the same setting: the result for `C[C@@H](NC(=O)c1cc(-c2ccc(F)cc2)nn1C)c1ccc(S(=O)(=O)C2(C(=O)O)CCOCC2)cc1` [Example 08-003, 4-{4-[(1R)-1-{[3-(4-fluorophenyl)-1-methyl-1H-pyrazol-5-yl]formamido}ethyl]benzenesulfonyl}oxane-4-carboxylic acid] reads 139 nM; that for `COCCOC(=O)CS(=O)(=O)c1ccc([C@@H](C)NC(=O)c2cc3cc(C(F)(F)F)ccc3n2C)cc1` [Example 09-008, 2-methoxyethyl 2-{4-[(1R)-1-{[1-methyl-5-(trifluoromethyl)-1H-indol-2-yl]formamido}ethyl]benzenesulfonyl}acetate], 3460 nM; that for `CCCCOC(=O)CS(=O)(=O)c1ccc([C@@H](C)NC(=O)c2cc3c(Cl)cc(C)cc3n2C)cc1` [Example 09-009, butyl 2-{4-[(1R)-1-[(4-chloro-1,6-dimethyl-1H-indol-2-yl)formamido]ethyl]benzenesulfonyl}acetate], 3740 nM. Still for that read-out and setting: to `Cc1cc(Cl)c2cc(C(=O)N[C@H](C)c3ccc(S(=O)(=O)CC(=O)OCc4ccncc4)cc3)n(C)c2c1` [Example 09-010, pyridin-4-ylmethyl 2-{4-[(1R)-1-[(4-chloro-1,6-dimethyl-1H-indol-2-yl)formamido]ethyl]benzenesulfonyl}acetate] belongs 175 nM; to `Cc1cc(Cl)c2cc(C(=O)N[C@H](C)c3ccc(S(=O)(=O)CC(=O)OCC(COC(=O)C(C)(C)C)COC(=O)C(C)(C)C)cc3)n(C)c2c1` [Example 09-015, 2-{[(2-{4-[(1R)-1-[(4-chloro-1,6-dimethyl-1H-indol-2-yl)formamido]ethyl]benzenesulfonyl}acetyl)oxy]methyl}-3-[(2,2-dimethylpropanoyl)oxy]propyl 2,2-dimethylpropanoate], 9190 nM; to `Cc1cc(Cl)c2cc(C(=O)N[C@H](C)c3ccc(S(=O)(=O)CC(=O)OCC4CC4)cc3)n(C)c2c1` [Example 09-016, cyclopropylmethyl 2-{4-[(1R)-1-[(4-chloro-1,6-dimethyl-1H-indol-2-yl)formamido]ethyl]benzenesulfonyl}acetate], 2100 nM. The same measure, in the same setting: the result for `Cc1cc(Cl)c2cc(C(=O)N[C@H](C)c3ccc(S(=O)(=O)CC(=O)OCC4COC4)cc3)n(C)c2c1` [Example 09-017, oxetan-3-ylmethyl 2-{4-[(1R)-1-[(4-chloro-1,6-dimethyl-1H-indol-2-yl)formamido]ethyl]benzenesulfonyl}acetate] reads 177 nM; that for `Cc1cc(Cl)c2cc(C(=O)N[C@H](C)c3ccc(S(=O)(=O)CC(=O)O[C@H]4CCOC4)cc3)n(C)c2c1` [Example 09-018, (3S)-oxolan-3-yl 2-{4-[(1R)-1-[(4-chloro-1,6-dimethyl-1H-indol-2-yl)formamido]ethyl]benzenesulfonyl}acetate], 418 nM.

Consider `Cc1cc(Cl)c2cc(C(=O)N[C@H](C)c3ccc(S(=O)(=O)CC(=O)O[C@@H]4CCOC4)cc3)n(C)c2c1` [Example 09-019, (3R)-oxolan-3-yl 2-{4-[(1R)-1-[(4-chloro-1,6-dimethyl-1H-indol-2-yl)formamido]ethyl]benzenesulfonyl}acetate], for which the IC50 is 250 nM. For `COC(C)(C)COC(=O)CS(=O)(=O)c1ccc([C@@H](C)NC(=O)c2cc3c(Cl)cc(C)cc3n2C)cc1` [Example 09-021, 2-methoxy-2-methylpropyl 2-{4-[(1R)-1-[(4-chloro-1,6-dimethyl-1H-indol-2-yl)formamido]ethyl]benzenesulfonyl}acetate], the IC50 was 574 nM. Consider `CC(=O)OCC(COC(C)=O)COC(=O)CS(=O)(=O)c1ccc([C@@H](C)NC(=O)c2cc3c(Cl)cc(C)cc3n2C)cc1` [Example 09-022, 3-(acetyloxy)-2-[(acetyloxy)methyl]propyl 2-{4-[(1R)-1-[(4-chloro-1,6-dimethyl-1H-indol-2-yl)formamido]ethyl]benzenesulfonyl}acetate], for which the IC50 worked out at 431 nM.

In the case of `Cc1cc(Cl)c2cc(C(=O)N[C@H](C)c3ccc(S(=O)(=O)CC(=O)OCCOC(=O)C(C)(C)C)cc3)n(C)c2c1` [Example 09-023, 2-[(2-{4-[(1R)-1-[(4-chloro-1,6-dimethyl-1H-indol-2-yl)formamido]ethyl]benzenesulfonyl}acetyl)oxy]ethyl 2,2-dimethylpropanoate], the IC50 amounted to 1800 nM. Still for that read-out and setting: the result for `CC(=O)OCC(CO)COC(=O)CS(=O)(=O)c1ccc([C@@H](C)NC(=O)c2cc3c(Cl)cc(C)cc3n2C)cc1` (stereo partly drawn) [Example 09-024, 2-[(acetyloxy)methyl]-3-hydroxypropyl 2-{4-[(1R)-1-[(4-chloro-1,6-dimethyl-1H-indol-2-yl)formamido]ethyl]benzenesulfonyl}acetate] reads 247 nM. Consider `Cc1cc(Cl)c2cc(C(=O)N[C@H](C)c3ccc(S(=O)(=O)CC(=O)OC4COC4)cc3)n(C)c2c1` [Example 09-025, oxetan-3-yl 2-{4-[(1R)-1-[(4-chloro-1,6-dimethyl-1H-indol-2-yl)formamido]ethyl]benzenesulfonyl}acetate], for which the IC50 was found to be 72 nM. Still for that read-out and setting: to `Cc1cc(Cl)c2cc(C(=O)N[C@H](C)c3ccc(S(=O)(=O)CC(=O)OCC(CO)COC(=O)C(C)(C)C)cc3)n(C)c2c1` (stereo partly drawn) [Example 09-026, 2-{[(2-{4-[(1R)-1-[(4-chloro-1,6-dimethyl-1H-indol-2-yl)formamido]ethyl]benzenesulfonyl}acetyl)oxy]methyl}-3-hydroxypropyl 2,2-dimethylpropanoate] belongs 1410 nM; to `Cc1cc(Cl)c2cc(C(=O)N[C@H](C)c3ccc(S(=O)(=O)CC(=O)OCC(CO)CO)cc3)n(C)c2c1` [Example 09-027, 3-hydroxy-2-(hydroxymethyl)propyl 2-{4-[(1R)-1-[(4-chloro-1,6-dimethyl-1H-indol-2-yl)formamido]ethyl]benzenesulfonyl}acetate], 160 nM; to `Cc1cc(Cl)c2cc(C(=O)N[C@H](CO)c3ccc(S(=O)(=O)CC(=O)OC4CCOCC4)cc3)n(C)c2c1` [Example 09-028, oxan-4-yl 2-{4-[(1S)-1-[(4-chloro-1,6-dimethyl-1H-indol-2-yl)formamido]-2-hydroxyethyl]benzenesulfonyl}acetate], 230 nM.

On to `Cc1cc(Cl)c2cc(C(=O)N[C@H](CO)c3ccc(S(=O)(=O)CC(=O)O[C@H]4CCOC4)cc3)n(C)c2c1` [Example 09-030, (3S)-oxolan-3-yl 2-{4-[(1S)-1-[(4-chloro-1,6-dimethyl-1H-indol-2-yl)formamido]-2-hydroxyethyl]benzenesulfonyl}acetate], for which the IC50 amounted to 85 nM.

On to `Cc1cc(Cl)c2cc(C(=O)N[C@H](CO)c3ccc(S(=O)(=O)CC(=O)OCC4(C)COC4)cc3)n(C)c2c1` [Example 09-031, (3-methyloxetan-3-yl)methyl 2-{4-[(1S)-1-[(4-chloro-1,6-dimethyl-1H-indol-2-yl)formamido]-2-hydroxyethyl]benzenesulfonyl}acetate], for which the IC50 came to 61 nM. Same read-out and setting: to `Cc1cc(Cl)c2cc(C(=O)N[C@H](CO)c3ccc(S(=O)(=O)CC(=O)OCCCO)cc3)n(C)c2c1` [Example 09-033, 3-hydroxypropyl 2-{4-[(1S)-1-[(4-chloro-1,6-dimethyl-1H-indol-2-yl)formamido]-2-hydroxyethyl]benzenesulfonyl}acetate] belongs 98 nM.

The assay is the same for the next values; noted with them: 500 μM NAD/500 μM 3-PG; read-out: IC50 (PHGDH_500_NAD/3-PG).
As to `Cc1cc(Cl)c2cc(C(=O)N[C@H](C)c3ccc(S(=O)(=O)C4(C(=O)O)CC4)cc3)n(C)c2c1` [Example 07-013, 1-{4-[(1R)-1-[(4-chloro-1,6-dimethyl-1H-indol-2-yl)formamido]ethyl]benzenesulfonyl}cyclopropane-1-carboxylic acid], the IC50 came out at 15 nM. Still for that read-out and setting: to `Cc1cc2c(cc(C(=O)N[C@H](CO)c3ccc(S(=O)(=O)C(C)(C)C(=O)O)cc3)n2C)c(Cl)c1Cl` [Example 07-014, 2-{4-[(1S)-1-[(4,5-dichloro-1,6-dimethyl-1H-indol-2-yl)formamido]-2-hydroxyethyl]benzenesulfonyl}-2-methylpropanoic acid] belongs 6 nM. Still for that read-out and setting: the result for `Cc1cc2c(cc(C(=O)N[C@H](C)c3ccc(S(=O)(=O)C(C)(C)C(=O)O)cc3)n2C)c(Cl)c1Cl` [Example 07-015, 2-{4-[(1R)-1-[(4,5-dichloro-1,6-dimethyl-1H-indol-2-yl)formamido]ethyl]benzenesulfonyl}-2-methylpropanoic acid] reads 9 nM; that for `CC(=O)N1CCC(C(=O)O)(S(=O)(=O)c2ccc([C@@H](C)NC(=O)c3cc4c(Cl)c(Cl)c(C)cc4n3C)cc2)CC1` [Example 07-016, 1-acetyl-4-{4-[(1R)-1-[(4,5-dichloro-1,6-dimethyl-1H-indol-2-yl)formamido]ethyl]benzenesulfonyl}piperidine-4-carboxylic acid], 21 nM; that for `C[C@@H](NC(=O)c1cc(-c2ccc(F)cc2)nn1C)c1ccc(S(=O)(=O)C2(C(=O)O)CCCC2)cc1` [Example 08-002, 1-{4-[(1R)-1-{[3-(4-fluorophenyl)-1-methyl-1H-pyrazol-5-yl]formamido}ethyl]benzenesulfonyl}cyclopentane-1-carboxylic acid], 95 nM.
